Experimental data published in patent US20110028686A1, “Protein binding miniature proteins” (Yale University, priority 2000, published 2011).
Ends that are not written are not given here. Peptide text beside a SMILES is read from it. * marks the point of attachment. X1 = C[C@]12O[C@H](C[C@]1(O)C(=O)NCCCCCCCCNC(=O)C*)n1c3ccccc3c3c4c(c5c6ccccc6n2c5c31)CNC4=O; Fluorescein(5-NHCOCH2) = O=C(C*)Nc1ccc2c(c1)C(=O)OC21c2ccc(O)cc2Oc2cc(O)ccc21

What was measured:
Bcl-2 = Bcl-2 (Homo sapiens, UniProt P10415); assay: Bcl-2 binding by fluorescence emission of fluorescein-labeled peptide; conditions: read-out: Kd for binding to Bcl-2, 4° C., PBS
Chain of Bcl-2 (P10415 1-205): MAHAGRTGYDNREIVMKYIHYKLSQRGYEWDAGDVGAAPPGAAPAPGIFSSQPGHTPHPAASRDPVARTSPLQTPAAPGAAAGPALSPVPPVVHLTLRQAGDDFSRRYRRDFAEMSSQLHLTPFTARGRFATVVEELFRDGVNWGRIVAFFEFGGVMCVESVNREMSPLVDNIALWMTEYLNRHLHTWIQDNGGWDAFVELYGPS

catalytic subunit of PKA = catalytic subunit of PKA (Homo sapiens, UniProt P17612); assay: Fluorescence polarization, affinity for PKA catalytic subunit; assay type: binding
[1] = test system: Ca++/calmodulin kinase II (CamKII); assay: Phosphotransferase assay, CamKII; assay type: biochemical; conditions: 1-K252a up to 100 nM; 1 up to 5 μM
Akt kinase (PKB) = Akt kinase (PKB) (Homo sapiens, UniProt P31749); assay: Phosphotransferase assay, PKB; assay type: biochemical; conditions: 1-K252a up to 100 nM; 1 up to 5 μM
Chain of Akt kinase (PKB) (P31749 whole entry, species assumed): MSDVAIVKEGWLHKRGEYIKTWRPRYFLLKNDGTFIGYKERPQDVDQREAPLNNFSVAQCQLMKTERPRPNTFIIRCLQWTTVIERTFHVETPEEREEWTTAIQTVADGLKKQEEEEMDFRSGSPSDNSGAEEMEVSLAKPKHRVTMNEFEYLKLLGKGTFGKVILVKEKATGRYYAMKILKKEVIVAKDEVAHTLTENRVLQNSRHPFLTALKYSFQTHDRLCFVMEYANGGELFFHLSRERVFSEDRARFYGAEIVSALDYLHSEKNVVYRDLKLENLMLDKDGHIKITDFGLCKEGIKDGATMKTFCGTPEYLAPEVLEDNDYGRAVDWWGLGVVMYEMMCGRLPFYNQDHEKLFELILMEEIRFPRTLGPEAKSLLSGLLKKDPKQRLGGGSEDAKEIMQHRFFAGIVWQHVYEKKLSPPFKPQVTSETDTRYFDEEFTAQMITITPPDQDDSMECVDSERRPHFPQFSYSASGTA

[2] = test system: cGMP-dependent protein kinase (PKG); assay: Phosphotransferase assay, PKG; assay type: biochemical
[3] = target: protein kinase Cα (PKC-α) (Homo sapiens, UniProt P17252); assay: Phosphotransferase assay, PKC-α; assay type: biochemical; conditions: 1-K252a up to 100 nM; 1 up to 5 μM
PKA = PKA (Homo sapiens, UniProt P17612); assay: PKA phosphotransferase assay, streptavidin-matrix capture of [32P]-phosphorylated substrates; assay type: biochemical

| Compound | Kd (Bcl-2) [nM] | inhibition of CamKII phosphotransferase activity [1] | inhibition of PKB phosphotransferase activity (Akt kinase (PKB)) | inhibition of PKC-α phosphotransferase activity [3] | further results |
| --- | --- | --- | --- | --- | --- |
| GPSQPTYPGDDAPVEDLIRFYNDLTYYLFVVSGRTGRRNAIHDC(Fluorescein(5-NHCOCH2))-NH2 (C-terminus assumed) [1^Flu] | – | – | – | – | fold lower stability of PKA complex than PKA·PKI5-24^Flu (catalytic subunit of PKA; 100 μM ATP): 3 fold; Kd (catalytic subunit of PKA; absence of ATP): 230 ± 34 nM; Kd (catalytic subunit of PKA; presence of 100 μM ATP): 99 ± 39 nM |
| GPSQPTYPGDDAPVEDLIRFYNDLTYYLFVVSGRTGRRNAIHDC-NH2 (C-terminus assumed) [compound 1] | – | inhibiting no other kinase tested | inhibiting no other kinase tested | inhibiting no other kinase tested | inhibition of PKG phosphotransferase activity ([2]; 1 up to 5 μM): inhibiting no other kinase tested |
| GPSQPTYPGDDAPVEDLIRFYNDLTYYLFVVSGRTGRRNC(X1)IHD-NH2 (C-terminus assumed) [1-K252a] | – | inhibiting no other kinase tested | inhibiting no other kinase tested | inhibiting no other kinase tested | fold more potent than 1 alone (PKA) (PKA): 30 fold; IC50 [2]: 679 ± 202 nM |

Continued, in another order:

| Kd (Bcl-2) [nM] | Compound | inhibition of CamKII phosphotransferase activity [1] | inhibition of PKB phosphotransferase activity (Akt kinase (PKB)) | inhibition of PKC-α phosphotransferase activity [3] | further results |
| --- | --- | --- | --- | --- | --- |
| 811 ± 20 | CC[C@H](C)[C@H](NC(=O)[C@H](CC(=O)O)NC(=O)[C@H](CC(=O)O)NC(=O)CNC(=O)[C@H](Cc1ccccc1)NC(=O)[C@H](Cc1ccc(O)cc1)NC(=O)[C@H](C)NC(=O)[C@H](CC(C)C)NC(=O)[C@H](CC(C)C)NC(=O)[C@H](CCCNC(=N)N)NC(=O)CNC(=O)[C@@H](NC(=O)[C@H](Cc1ccccc1)NC(=O)[C@H](CCCNC(=N)N)NC(=O)[C@@H](NC(=O)[C@H](CC(C)C)NC(=O)[C@H](CC(=O)O)NC(=O)[C@H](CCC(=O)O)NC(=O)[C@@H](NC(=O)[C@@H]1CCCN1C(=O)[C@H](C)NC(=O)[C@H](CC(=O)O)NC(=O)[C@H](CC(=O)O)NC(=O)CNC(=O)[C@@H]1CCCN1C(=O)[C@H](Cc1ccc(O)cc1)NC(=O)[C@@H](NC(=O)[C@@H]1CCCN1C(=O)[C@H](CCC(N)=O)NC(=O)[C@H](CO)NC(=O)[C@@H]1CCCN1C(=O)CN)[C@@H](C)O)C(C)C)[C@@H](C)CC)C(C)C)C(=O)N[C@@H](CC(N)=O)C(=O)N[C@@H](CCCNC(=N)N)C(=O)N[C@@H](CCCNC(=N)N)C(=O)N[C@@H](Cc1ccc(O)cc1)C(=O)N[C@@H](CSCC(=O)Nc1ccc2c(c1)C(=O)OC21c2ccc(O)cc2Oc2cc(O)ccc21)C(N)=O [p4101] (H-GPSQPTYPGDDAPVEDLIRFVGRLLAYFGDDINRRYC(Fluorescein(5-NHCOCH2))-NH2) | – | – | – | – |
| 3700 ± 1400 | CC[C@H](C)[C@H](NC(=O)[C@H](Cc1ccc(O)cc1)NC(=O)[C@H](CCCNC(=N)N)NC(=O)[C@H](CC(C)C)NC(=O)[C@H](CCCNC(=N)N)NC(=O)[C@H](CO)NC(=O)[C@@H](NC(=O)[C@H](Cc1ccccc1)NC(=O)[C@H](CCCNC(=N)N)NC(=O)[C@@H](NC(=O)[C@H](CC(C)C)NC(=O)[C@H](CC(=O)O)NC(=O)[C@H](CCC(=O)O)NC(=O)[C@@H](NC(=O)[C@@H]1CCCN1C(=O)[C@H](C)NC(=O)[C@H](CC(=O)O)NC(=O)[C@H](CC(=O)O)NC(=O)CNC(=O)[C@@H]1CCCN1C(=O)[C@H](Cc1ccc(O)cc1)NC(=O)[C@@H](NC(=O)[C@@H]1CCCN1C(=O)[C@H](CCC(N)=O)NC(=O)[C@H](CO)NC(=O)[C@@H]1CCCN1C(=O)CN)[C@@H](C)O)C(C)C)[C@@H](C)CC)C(C)C)C(=O)N[C@@H](C)C(=O)N[C@@H](CC(=O)O)C(=O)N[C@@H](CC(C)C)C(=O)N[C@H](C(=O)N[C@@H](CC(N)=O)C(=O)N[C@@H](CCCNC(=N)N)C(=O)N[C@@H](CCCNC(=N)N)C(=O)N[C@@H](Cc1ccc(O)cc1)C(=O)N[C@@H](CSCC(=O)Nc1ccc2c(c1)C(=O)OC21c2ccc(O)cc2Oc2cc(O)ccc21)C(N)=O)[C@@H](C)CC [p4102] (H-GPSQPTYPGDDAPVEDLIRFVSRLRYIADLINRRYC(Fluorescein(5-NHCOCH2))-NH2) | – | – | – | – |
